From publication PMC8532147, “Dual Stimuli-Responsive Dynamic Covalent Peptide Tags: Toward Sequence-Controlled Release in Tumor-like Microenvironments” (Journal of the American Chemical Society, 2021) come the findings set out here.

Bridge positions count the residues as written; N and C are the ends. Square brackets hold non-standard residues; d marks the D form. Peptide text beside a SMILES is read from it. I, II: the chains in the order shown. Phe(4-B(OH)2) = N[C@@H](Cc1ccc(B(O)O)cc1)C(=O)O; Dopa = N[C@@H](Cc1ccc(O)c(O)c1)C(=O)O

A short description of data set [1]: Stability under oxidative conditions (0.1% hydrogen peroxide). Format: physicochemical. Conditions: LC-MS SIM. On the procedure:
We further determined the stability of the hybridized sequences under oxidative conditions. The oxidized complex, 2Ox was incubated with 0.1% hydrogen peroxide ([…]). Aliquots were analyzed via LC-MS over different time intervals up to 60 min (SI, Figure S23) using SIM detection. Besides monitoring the decrease in the m/z of 2Ox, SIM also offers the possibility to identify degradation products and allowed us to map the chemical processes involved in the oxidative condition implemented. […] We observed complete conversion to compound 3 (Figure 6c,d). […]
12. Fluorescence quenching assay
Four stock solutions were prepared: 5 mM OSCSO, 2 μM DL488 -BSCSB in a phosphate buffer (100 mM, pH = 6.0, 2.5 mM TCEP) and 5 mM OSCSO, 2 µM DL488-BSCSB in a phosphate buffer (100 mM, pH = 7.4, 2.5 mM TCEP). […] FQA was measured immediately.
The procedure was repeated 3 times both for pH 6.0 and 7.4. Each point on the graph represents mean average of normalized fluorescence for one concentration from the series and error bars represent standard […]
The NMR spectra were recorded on a Bruker AVANCE III 850 MHz spectrometer with a 5 mm triple resonance TXI 1H/13C/15N probe equipped wit h a z-gradient. All spectra were measured at 298 K. The spectra were analyzed using Bruker TopSpin 3.6.1. […]

A short description of data set [2]: in vitro. Format: in vitro ADME. The settings on record: s9 or cytosol. On the procedure: Such differences in the physiological concentration of GSH have been exploited for controlled release. Thus, the GSH-induced cleavage of 1 mM of 2Ox was probed by incubation in commercially available liver cytosols spiked with physiologically relevant concentrations of GSH:GSSG (1:0.025 and 10:0.25 mM). The analysis was performed for up to 60 min and quantitative analysis was obtained using SIM in LC-MS (2Ox, m/z = 1328, 664) with Fmoc-Phe-OH as an internal standard (SI, Figure S22). […] On the other hand, at a concentration of 10 mM (molar ratio 10:1) the reaction was slightly slower due to longer equilibration time. […] Therefore, although the oxidized complex is stable over a longer period in serum (Figure 6a), GSH release could be induced in cytosolic conditions in cancer cells (Figure 6b), which would be important for controlled release as a drug delivery system.
(§1) The UV (280 nm) signals were integrated and normalized against the Fmoc-Phe standard as well as the SIM for 664 against the SIM of 388. The relative area was then plotted against the incubation time.
(§2) Figure S 20: Stability of 2Ox in glucose solution (GS) and low glucose cell media (LGM) detected by UV -Vis and ESI-MS. […]
(§3) expected due to free thiols in the media (FCS and cysteine).
(§4) 11. Stability in cytosol under oxidative/reductive conditions
(§5) Stability in liver cytosol […]

A short description of data set [3]: in vitro. Format: in vitro ADME. Conditions: calf (bovine), cells or culture medium. On the procedure:
Next, the stability of 2Ox in glucose containing solutions were tested since it is known that phenyl boronic acids interact with sugars.[11]2Ox was incubated in glucose solution (1 g/mL) or […] DMEM cell media (1 g/mL), which was used in the subsequent cell studies. The analysis was performed for up to 3 days and quantitative analysis was obtained using single ion monitoring (SIM) of m/z of 2Ox (m/z = 664, 388) in LC-ESI-MS to improve sensitivity in detection (SI, Figure S20). Fmoc-Phe-OH was used as an internal standard. […] The amount of 2Ox decreased by around 20% in low glucose DMEM cell culture media after a day of incubation (SI, Figure S20). The decrease is presumably due to the disulfide exchange with free thiols inside the media (10% FCS and cysteine according to manufacturer’s specifications). Nevertheless, 2Ox is sufficiently stable to potential thiol exchange for subsequent biological studies.
as §1, §2, §3, §4, §5

For the compound `NC(=O)[C@H](Cc1ccc(B(O)O)cc1)NC(=O)[C@H](CO)NC(=O)[C@H](CSSC[C@H](NC(=O)[C@H](CO)NC(=O)[C@@H](N)Cc1ccc(O)c(O)c1)C(=O)N[C@@H](CO)C(=O)N[C@@H](Cc1ccc(O)c(O)c1)C(N)=O)NC(=O)[C@H](CO)NC(=O)[C@@H](N)Cc1ccc(B(O)O)cc1` [2Ox] (I: H-[Phe(4-B(OH)2)]SCS[Phe(4-B(OH)2)]-NH2 / II: H-[Dopa]SCS[Dopa]-NH2; disulfide I:3-II:3), in data set [1] (1 mM in ammonium bicarbonate with 0.1% hydrogen peroxide (30 μM), after 10 min), the starting material left entry was “no starting material is left”. Besides, in data set [1] (0.1% hydrogen peroxide (30 μM), up to 60 min), the “dissociation into the single peptide sequences” value was “did not dissociate”. The same compound came in with a share remaining at 10 min, 1 mM in data set [2] of 80%. Moreover, the metabolised at 24 h in data set [3] was about 20%.

The amount remaining is what is left of the initial amount, in per cent.
